# Test results reported in PubChem BioAssay (NCI).
# Where “and” joins values, the source holds several entries; their conditions need not be identical. Equal values may be shown once.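 Values below derive from 48-hour exposures of cells grown in 96-well plates, with endpoints linearly interpolated between the two concentrations bracketing the appropriate inhibition level. Here, GI50 denotes the concentration required for 50% inhibition of growth. TGI denotes the concentration required for complete inhibition of growth.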
# Columns and labels:
# Test in all cases: NCI anticancer screen, dose series, 48 h
# XF 498 CNS = test system: XF 498 CNS
# KM20L2 colon = test system: KM20L2 colon
# DLD-1 colon = test system: DLD-1 colon
# M19-MEL melanoma = test system: M19-MEL melanoma
# RXF-631 renal = test system: RXF-631 renal
# SNB-78 CNS = test system: SNB-78 CNS
# DMS 273 small cell lung = test system: DMS 273 small cell lung
# LXFL 529 NSCLC = test system: LXFL 529 NSCLC
# MDA-N = test system: MDA-N
Structure (SMILES),TGI (XF 498 CNS) [µM],TGI (KM20L2 colon) [µM],TGI (DLD-1 colon) [µM],TGI (M19-MEL melanoma) [µM],TGI (RXF-631 renal),TGI (SNB-78 CNS),TGI (DMS 273 small cell lung) [µM],TGI (LXFL 529 NSCLC) [µM],also measured
N/C(=N\NS(=O)(=O)c1ccccc1)Oc1ccc(Br)cc1Br,> 100,> 100,> 100,> 100,> 100 µM,> 100 µM,> 100,> 100,
C[Si](C)(C)C(CCCCSc1ccccc1)(Sc1ccccc1)Sc1ccccc1,> 100,,> 100,> 100,> 100 µM,> 100 µM,> 100,> 100,
Cc1c(C(=O)/C=C/C=C/c2ccccc2)[n+](=O)c2ccccc2n1[O-],95.3,> 100,29,> 100,,> 100 µM,> 100,51.2,
O=C(O)c1cc(=O)c2c([nH]c3ccccc32)s1,> 100,> 100,> 100,> 100,> 100 µM,> 100 µM,,> 100,
CC[C@@]1(OC(=O)CN)C(=O)OCc2c1cc1n(c2=O)Cc2c-1nc1cc3c(cc1c2CCl)OCO3,,,,,,,,,GI50 (MDA-N): 0.0885 µM; TGI (MDA-N): 0.645 µM
Cc1cc(Cl)ccc1OCC(=O)Nc1nc(N)nc(N)n1,,,,,,,,,TGI (MDA-N): > 100 µM
COC(=O)C1=C(CS(=O)c2ccc([N+](=O)[O-])cc2[N+](=O)[O-])C2C=CC1C2 (configuration not stated),64.1,57.8,37.6,64.2,32.7 µM,> 100 µM,43,56.9,
O=C1OC(c2ccccc2)=N/C1=C\c1ccc(Oc2ccc(Cl)c(Cl)c2)cc1,,> 100,> 100,> 100,,85.7 µM,,85.6,
Cc1cc(NC(=O)C2C3C=CC(O3)C2C(=O)O)no1 (configuration not stated),> 100,26.6,49.2,77.7,> 100 µM,> 100 µM,34.2,46.6,
NNc1cnn(-c2ccccc2)c(=O)c1Cl,,> 100,> 100,> 100,,> 100 µM,> 100,> 100,
CN(C)c1nc(=NCc2ccco2)ss1,> 100,> 100,46.1,> 43.6,,> 100 µM,> 34.6,> 100,TGI (MDA-N): 33.7 µM
Cc1ccc(S(=O)(=O)N=NC=C2c3ccccc3N(O)c3ccccc32)cc1,,12.4,8.46,23.4,10.2 µM,32.8 µM,15.1,2.41,
NC(=O)c1cc(N(CCO)CCO)c([N+](=O)[O-])cc1[N+](=O)[O-],,,,,,,,,TGI (MDA-N): > 100 µM
O=c1cc(-c2ccc(O)cc2)oc2cc(O[C@@H]3O[C@H](CO)[C@@H](O)[C@H](O)[C@H]3O)cc(O)c12,,,,,,,,,TGI (MDA-N): > 100 µM
O=C(C#Cc1ccccc1)N1c2ccccc2CC1c1c[nH]c2ccccc12 (configuration not stated),,67.5,76.7,43.1,27.7 µM,36.9 µM,30,27.7,
CC1=C2C(=CC(C)(C)[C@@H]2O)C(=O)[C@](C)(O)C12CC2,0.0326,0.0744,0.0825,0.163,,,0.0189,0.0927,GI50 (MDA-N): 0.0126 µM; TGI (MDA-N): 0.0424 µM and 0.0278 µM
CCOC(=O)CN(Cn1cncn1)Cn1cncn1,40.9,51.7,> 100,> 100,,> 100 µM,39.8,> 100,
CCc1cccc(C)c1NC(=O)CCc1nnc2s/c(=C\c3cccc4ccccc34)c(=O)n12,> 100,> 100,> 100,> 100,> 100 µM,> 100 µM,> 100,> 100,
CC(=O)NC(CCCCN)C(=O)NCc1ccccc1 (configuration not stated),> 100,> 100,> 100,> 100,,,> 100,> 100,
CC(C)(O)/C=C/C(=O)[C@](C)(O)[C@H]1[C@H](O)C[C@@]2(C)[C@@H]3CC=C4[C@@H](C[C@H](O)C(=O)C4(C)C)[C@]3(C)C(=O)C[C@]12C,,,8.08,20.7,0.549 µM and 1.97 µM,0.92 µM and 1.67 µM,0.543,4.09,GI50 (KM20L2 colon): 0.0872 µM; GI50 (DLD-1 colon): 0.119 µM; GI50 (M19-MEL melanoma): 0.0781 µM; GI50 (RXF-631 renal): 0.116 µM and 0.34 µM; GI50 (SNB-78 CNS): 0.203 µM; GI50 (DMS 273 small cell lung): 0.108 µM; GI50 (LXFL 529 NSCLC): 0.0484 µM
[O-][N+]1(CC[N+]2([O-])CCCCC2)CCCCC1,,,,,,,,,TGI (MDA-N): > 100 µM

Structure (SMILES),TGI (XF 498 CNS) [µM],TGI (KM20L2 colon) [µM],TGI (DLD-1 colon) [µM],TGI (M19-MEL melanoma) [µM],TGI (RXF-631 renal),TGI (SNB-78 CNS),TGI (DMS 273 small cell lung) [µM],TGI (LXFL 529 NSCLC) [µM],also measured
O=c1cccccc1NCCCCCCCNc1cccccc1=O,32.8,> 100,> 100,84.8,35 µM,> 100 µM,> 100,> 100,
CCc1ccccc1NC(=O)/C=C/c1ccccc1,,,,,,,,,TGI (MDA-N): > 100 µM
COC(=O)CCC12CCC(=O)C1[C@@H](C(=O)OC)C[C@H]2C(=O)OC (some centres not stated),> 100,> 100,> 100,> 100,> 100 µM,> 100 µM,> 100,> 100,
O=[N+]([O-])c1cccc(-c2nc(-c3ccccc3)c(-c3ccccc3)[nH]2)c1,,,,,,,,,TGI (MDA-N): > 100 µM
CCOC(=O)CCC1(C(=O)OCC)CCCC1=O (configuration not stated),> 100,> 100,> 100,> 100,> 100 µM,> 100 µM,> 100,> 100,
N#C/C(=C\c1cccc(O)c1O)C(N)=O,95.6,> 100,> 100,> 100,> 100 µM,> 100 µM,> 100,> 100,
CN(C)/C=N\c1ccnc(=O)[nH]1,> 100,> 100,> 100,> 100,> 100 µM,> 100 µM,> 100,> 100,
CC1(c2cc3c(cc2Br)OCO3)SCCCS1,82.3,> 100,> 100,> 100,> 100 µM,> 100 µM,> 100,> 100,
COc1ccc(OC(C(=O)O)C(C)C)c2c1CCCC2=O (configuration not stated),> 100,> 100,> 100,> 100,> 100 µM,> 100 µM,> 100,> 100,
Cc1c2c(cc3c1C(=O)C(=O)C1=C3OC[C@@H]1C)C(C)(C)CCC2,55.7,44.5,59.5,6.68,,,28.5,37.6,
CCCn1cnc2c(SCC(=O)O)nc(N)nc21,,,,,,,,,TGI (MDA-N): > 100 µM
C#CCNC(=O)ON1C(=O)CCC1=O,,> 100,> 100,> 100,> 100 µM,> 100 µM,> 100,> 100,
Cc1cc(C)nc(/C(=N\NC(N)=O)C(=O)Nc2nc3ccc(C)cc3s2)c1,> 100,> 100,> 100,> 100,,> 100 µM,> 93.5,> 100,
COc1ccc(-c2cc(C(=O)Nc3cc(C(F)(F)F)cc(C(F)(F)F)c3)c3ccccc3n2)cc1,22.5,31.4,43.6,63,,52.1 µM,21.1,20.9,
O=c1nc(-c2ccccc2)cc(CC(O)c2ccc(Cl)c(Cl)c2)[nH]1 (configuration not stated),,> 100,> 100,> 100,,,> 100,> 100,
Cl/C(N=Nc1ccccc1)=N/Nc1ccccc1,> 100,> 100,,> 100,> 100 µM,> 100 µM,> 100,> 100,
COC(=O)C(CCC(=O)CCl)N1C(=O)c2ccccc2C1=O (configuration not stated),,,,,,,,,TGI (MDA-N): 23.9 µM
[O-]c1ccccc1C=Nc1ccc2c(c1)CCC2.[O-]c1ccccc1C=Nc1ccc2c(c1)CCC2.[O]=[U+2]=[O],> 100,> 100,> 100,> 100,> 100 µM,> 100 µM,> 100,> 100,GI50 (XF 498 CNS): > 100 µM; GI50 (KM20L2 colon): 56.6 µM; GI50 (DLD-1 colon): 27.8 µM; GI50 (M19-MEL melanoma): > 100 µM; GI50 (RXF-631 renal): > 100 µM; GI50 (SNB-78 CNS): > 100 µM; GI50 (DMS 273 small cell lung): 14.2 µM; GI50 (LXFL 529 NSCLC): 28.4 µM
Cc1cccc2c1c1ccc3c(c1n2C)C(=O)C=CC3=O,,36.9,5.21,14.9,49.6 µM,53.5 µM,8.3,4.22,
CNc1ccc2ncccc2c1[N+](=O)[O-],> 100,> 100,> 100,> 100,> 100 µM,> 100 µM,> 100,> 100,
COC(=O)C1C(=O)CC2CCCCC21 (configuration not stated),,> 100,> 100,> 100,,> 100 µM,> 100,> 100,
